Data: PubChem BioAssay (NCI)
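Values below derive from 48-hour exposures of cells grown in 96-well plates, with endpoints linearly interpolated between the two concentrations bracketing the appropriate inhibition level. GI50 marks 50% less growth. The concentration for full growth arrest is given as TGI.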

How the values were obtained:
Test in all cases: NCI tumour cell line growth inhibition, 48 h
[1] = system: SW-620 colon
[2] = system: ACHN renal
[3] = system: EKVX NSCLC
[4] = system: DLD-1 colon
[5] = system: HL-60(TB) leukemia
[6] = system: KM20L2 colon
[7] = system: HOP-62 NSCLC
[8] = system: M14 melanoma
[9] = system: NCI-H226 lung
[10] = system: BT-549 breast

| Structure (SMILES) | TGI [1] | TGI [2] | TGI [3] | TGI [4] | TGI [5] | TGI [6] | TGI [7] | TGI [8] | TGI [9] | GI50 [1] | GI50 [2] | GI50 [3] | GI50 [5] | GI50 [7] | GI50 [10] | TGI [10] | GI50 [8] | GI50 [9] |
| --- | --- | --- | --- | --- | --- | --- | --- | --- | --- | --- | --- | --- | --- | --- | --- | --- | --- | --- |
| CCCCCNC(=O)CCCCCCCCCCCNC(=O)CCCCCCCCCCN1C=CC(=CC=C2C=CC(=O)C=C2)C=C1 | > 100 µM | > 100 µM | > 100 µM | > 100 µM | 8.83 µM | > 100 µM | > 100 µM | > 100 µM | > 100 µM | – | – | – | – | – | – | – | – | – |
| O=[N+]([O-])c1ccc(/C=C/c2ccc(/C=C/c3ccc([N+](=O)[O-])cc3[N+](=O)[O-])cc2)c([N+](=O)[O-])c1 | > 100 µM | > 100 µM | > 100 µM | > 100 µM | > 100 µM | > 100 µM | > 100 µM | > 100 µM | > 100 µM | – | – | – | – | – | – | – | – | – |
| Cc1ccccc1NC(=O)C1C(=O)N(c2ccccc2C)C(=O)/C1=N\NC(N)=O (configuration not stated) | > 100 µM | > 100 µM | > 100 µM | > 100 µM | > 100 µM | > 100 µM | > 100 µM | > 100 µM | – | – | – | – | – | – | – | – | – | – |
| COC(=O)N/N=C(\C)c1sc(-c2nc(C)c(/C(C)=N/NC(=O)OC)s2)nc1C | – | > 100 µM | > 100 µM | > 100 µM | > 100 µM | > 100 µM | > 100 µM | > 100 µM | > 100 µM | – | – | – | – | – | – | – | – | – |
| Cn1cc(-c2ccc3c(c2)ncn3-c2cc(NS(=O)(=O)C3CC3)cc(-c3ccc(F)cc3F)c2)cn1 | > 100 µM | 66.9 µM | > 100 µM | – | 45.4 µM | – | > 100 µM | > 100 µM | 94.4 µM | 39.1 µM | 5 µM | 21.3 µM | 11.9 µM | 14.1 µM | 4.22 µM | 56.7 µM | 14.9 µM | 27 µM |
| CNS(=O)(=O)NNS(=O)(=O)c1ccc(C)cc1 | > 100 µM | > 100 µM | > 100 µM | > 100 µM | > 100 µM | > 100 µM | > 100 µM | > 100 µM | – | – | – | – | – | – | – | – | – | – |
| CC1(C)CC2=NO[Se]3=C2C(=NO3)C1 | 12.3 µM | 3.61 µM | 9.68 µM | – | 5.08 µM | – | 10.8 µM | 6.25 µM | 11.6 µM | – | – | – | – | – | – | 7.28 µM | – | – |
| Nc1cc(C(F)(F)F)c(-c2nc(N3CCOCC3)nc(N3CCOCC3)n2)cn1 | > 100 µM | > 100 µM | 5.02 µM | – | > 84.1 µM | – | 16.2 µM | 14.1 µM | 12.2 µM | 0.921 µM | 0.403 µM | 0.31 µM | 0.381 µM | 0.643 µM | 0.265 µM | 3.84 µM | 0.401 µM | 0.384 µM |
